According to publication PMC8648042, “IMB-XMA0038, a new inhibitor targeting aspartate-semialdehyde dehydrogenase of Mycobacterium tuberculosis” (Emerging Microbes & Infections, 2021):

Target: T1, Aspartate-semialdehyde dehydrogenase (MtASADH) (Mycobacterium tuberculosis, UniProt P9WNX5)
T1 construct: gene asd
Test: SPR with MtASADH immobilized on CM5 chip; also IC50 […] in LysC-coupled NADPH enzyme assay
Format: binding

T1 sequence (P9WNX5 whole entry, looked up): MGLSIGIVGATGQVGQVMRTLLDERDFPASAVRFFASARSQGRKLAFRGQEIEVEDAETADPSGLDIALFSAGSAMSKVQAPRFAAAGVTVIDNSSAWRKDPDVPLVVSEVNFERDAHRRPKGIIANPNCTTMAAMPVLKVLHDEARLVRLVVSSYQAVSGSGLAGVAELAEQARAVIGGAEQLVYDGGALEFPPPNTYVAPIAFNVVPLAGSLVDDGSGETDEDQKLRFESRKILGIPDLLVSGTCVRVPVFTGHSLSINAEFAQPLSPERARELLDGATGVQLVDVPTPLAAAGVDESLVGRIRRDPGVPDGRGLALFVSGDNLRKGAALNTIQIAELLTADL

O=C(Nc1nnc(C2CCCO2)o1)c1ccc([N+](=O)[O-])o1 (stereo not shown) [IMB-XMA0038, 5-nitro-N-(5-(tetrahydrofuran-2-yl)-1,3,4-oxadiazol-2-yl)furan-2-carboxamide]
Kd: 365 µM
